Where two headings read alike, the source gives them in different places.
Columns and labels:
[1] = system: rats; conditions: rat, in vivo; cited from earlier work
[2] = system: Wistar rats; test: Extended one-generation reproductive toxicity study (OECD TG 443); format: in vivo, rat; conditions: for NOAEL, EOGRTS: developmental and reproductive toxicity: OECD 443 v 2018, oral gavage
From the text: Healthy and specific pathogen-free male and female (non-pregnant and nulliparous) Wistar Crl: WI(Han) rats were obtained from Charles River Laboratories (Germany). […] Upon arrival at BSL BIOSERVICE, the animals underwent an acclimatisation period of at least 5 days, and they were approximately 15–16 weeks old at the onset of the treatment period.

[3] = system: rats; conditions: key studies Gazin et al. 2013, Pouliot 2013; ref SCCS 2013; EMA 2015; cited from earlier work
[4] = system: Wistar rats; conditions: ref Harlan 2012, cited from earlier work
[5] = system: rats; conditions: read-across from MP; ref ECHA dissemination portal; cited from earlier work
[6] = system: rats; conditions: acute oral, rats, OECD 401; ref ECHA dissemination portal; cited from earlier work
[7] = Octanol–water partition coefficient (Log Kow); format: physicochemical; conditions: mean; OECD TG 107 and OECD TG 117
From the text: Generally, these parabens have very similar physico-chemical properties.

[8] = system: rats; conditions: rat, in vivo; cited from earlier work; remark: listed apart in the source

CCCOC(=O)c1ccc(O)cc1 [Propyl paraben, Propyl 4-hydroxybenzoate]
Eye irritation/eye corrosion classification [1]: Not irritating [c] (OECD 437 and 405; 2012) | Developmental immunotoxicity (DIT) ([2]; DIT cohort): did not exhibit | Developmental neurotoxicity (DNT) ([2]; DNT cohort): did not exhibit DNT | NOAEL, EOGRTS: developmental and reproductive toxicity [2]: NOAEL: 1000 (OECD 443; v 2018) mg/kg body weight/day | NOAEL, EOGRTS: developmental and reproductive toxicity ([2]; listed as propyl paraben): 1000 mg/kg body weight/day | Accessory sex organs HP ([2]; P0, F1, (F2)): NAE / NAE | Adrenals HP ([2]; P0, F1, (F2)): NAE / NAE | Adrenals weight ([2]; P0, F1, (F2)): NAE / NAE | Age at balano-preputial separation ([2]; P0, F1, (F2)): NAE / NAE | Age at vaginal opening ([2]; P0, F1, (F2)): NAE / NAE | Anogenital distance ([2]; P0, F1, (F2)): NAE / NAE | Auditory startle ([2]; P0, F1, (F2)): NAE / NAE | Brain HP ([2]; P0, F1, (F2)): NAE / NAE | Brain morphometric evaluation ([2]; P0, F1, (F2)): NAE / NAE | Brain weight ([2]; P0, F1, (F2)): NAE / NAE | Cervix HP ([2]; P0, F1, (F2)): NAE / NAE | Coagulating gland HP ([2]; P0, F1, (F2)): NAE / NAE | Coagulating gland weight ([2]; P0, F1, (F2)): NAE / NAE | Colloid area (thyroid HP) ([2]; P0, F1, (F2)): NAE / NAE | Dystocia ([2]; P0, F1, (F2)): NAE / NAE | Epididymis HP ([2]; P0, F1, (F2)): NAE / NAE | Epididymis weight ([2]; P0, F1, (F2)): NAE / NAE | Fertility ([2]; P0, F1, (F2)): NAE / NAE | Foetal development ([2]; P0, F1, (F2)): NAE / NAE | Functional observation battery ([2]; P0, F1, (F2)): NAE [h] / NAE | Gestation length ([2]; P0, F1, (F2)): NAE / NAE | Litter size ([2]; P0, F1, (F2)): NAE / NAE | Litter viability ([2]; P0, F1, (F2)): NAE / NAE | Liver weight ([2]; P0, F1, (F2)): NAE / NAE | Mammary gland HP; females ([2]; P0, F1, (F2)): NAE / NAE | Mammary gland HP; males ([2]; P0, F1, (F2)): NAE / NAE | Motor activity ([2]; P0, F1, (F2)): NAE / NAE | Nipple development ([2]; P0, F1, (F2)): NAE / NAE | No. of implantations, corpora lutea ([2]; P0, F1, (F2)): NAE / NAE | No. of live births ([2]; P0, F1, (F2)): NAE / NAE | No. of ovarian follicles ([2]; P0, F1, (F2)): NAE / NAE | Oestrus cyclicity ([2]; P0, F1, (F2)): NAE / NAE | Offspring: learning & memory ([2]; P0, F1, (F2)): NAE / NAE | Ovary HP ([2]; P0, F1, (F2)): NAE / NAE | Ovary weight ([2]; P0, F1, (F2)): NAE / NAE | Oviduct HP ([2]; P0, F1, (F2)): NAE / NAE | Pituitary HP ([2]; P0, F1, (F2)): NAE / NAE | Pituitary weight ([2]; P0, F1, (F2)): NAE / NAE | Postimplantation loss ([2]; P0, F1, (F2)): NAE / NAE | Presence of anomalies (external, visceral, skeletal) ([2]; P0, F1, (F2)): NAE / NAE | Prostate HP ([2]; P0, F1, (F2)): NAE / NAE | Prostate weight ([2]; P0, F1, (F2)): NAE / NAE | Pup development ([2]; P0, F1, (F2)): NAE / NAE | Reproduction ([2]; P0, F1, (F2)): NAE / NAE | Seminal vesicles HP ([2]; P0, F1, (F2)): NAE / NAE | Seminal vesicles weight ([2]; P0, F1, (F2)): NAE / NAE | Sperm morphology ([2]; P0, F1, (F2)): NAE / NAE | Sperm motility ([2]; P0, F1, (F2)): NAE / NAE | Sperm numbers ([2]; P0, F1, (F2)): NAE / NAE | Testis HP ([2]; P0, F1, (F2)): NAE / NAE | Testis weight ([2]; P0, F1, (F2)): NAE / NAE | Thyroid HP ([2]; P0, F1, (F2)): NAE / NAE | Thyroid stimulating hormone level ([2]; P0, F1, (F2)): NAE / NAE | Thyroid weight ([2]; P0, F1, (F2)): NAE / NAE | Time to mating ([2]; P0, F1, (F2)): NAE / NAE | Triiodothyronine / thyroxine level ([2]; P0, F1, (F2)): NAE / NAE | Uterus HP (with cervix) ([2]; P0, F1, (F2)): NAE / NAE | Uterus weight (with cervix) ([2]; P0, F1, (F2)): NAE / NAE | Vagina HP ([2]; P0, F1, (F2)): NAE / NAE | Vaginal smears ([2]; P0, F1, (F2)): NAE / NAE | Anogenital distance, female pups PND 0 ([2]; all dose groups, within historical control, assessed as not toxicologically relevant): minimal lower absolute and relative anogenital distance | Clinical biochemistry parameters ([2]; parental animals, assessed as not toxicologically relevant): few marginal but statistically significant differences | Thyroid stimulating hormone ([2]; parental females (and F1 males) of high dose group, assessed as not toxicologically relevant): slight but statistically significantly higher group mean thyroid stimulating hormone values | Alterations of the parameters addressed in OECD TG 443 ([2]; up to 1000 mg/kg bw/day): no toxicologically relevant alterations | Local reactions after gavage ([2]; without toxicological relevance): Transient increased salivation | NOAEL [3]: 1000 mg/kg bw/day | NOAEL ([4]; historical OECD TG 422 feeding study, 15,000 ppm, first-generation offspring): 1125 mg/kg bw/day | NOAEL ([4]; historical OECD TG 422 feeding study, 15,000 ppm, parental females before pairing): 1076 mg/kg bw/day | NOAEL ([4]; historical OECD TG 422 feeding study, 15,000 ppm, parental males before pairing): 981 mg/kg bw/day | NOAEL ([4]; historical OECD TG 422 feeding study, highest concentration tested): 15,000 ppm | Genetic toxicity in vivo (rats) classification [5]: Not clastogenic (read-across from MP) | LD50 [6]: > 5000 (OECD 401; 1982) mg/kg bw | Log Kow [7]: 2.8 (mean; OECD TG 107 and OECD TG 117) | Skin irritation/skin corrosion classification [8]: Not irritating (read-across)

Source: publication PMC7904550, “Application of grouping and read-across for the evaluation of parabens of different chain lengths with a particular focus on endocrine properties” (Archives of Toxicology, 2021)
